Laboratory results reported in patent US12371454B2, “Cyclic peptide compound having Kras inhibitory action” (priority 2019, dated 2025).
Starred links: 1 amine or outer side, 2 acyl side, 3 side chain; linkers in the order of their positions; H or OH if unused. Positions of bridges follow the written chain, without caps; N, C: chain ends. Non-standard residues stand in square brackets, D forms with d. Residues, ends and D or L forms follow the SMILES beside them. *: point of attachment. hPhe(3-Cl-4-CF3) = N[C@@H](CCc1ccc(C(F)(F)F)c(Cl)c1)C(=O)O; X19 = CC(C)(C)Oc1cc(CC[C@H](N[*:1])C(=O)[*:2])cc(Cl)c1Cl; hPhe(3-F,4-CF3) = N[C@@H](CCc1ccc(C(F)(F)F)c(F)c1)C(=O)O; NMePhe(4-CF3) = CN[C@@H](Cc1ccc(C(F)(F)F)cc1)C(=O)O; X15 = COc1cc(CC[C@H](N[*:1])C(=O)[*:2])cc(Cl)c1Cl; NMeAbu(4,4,4-F3) = CN[C@@H](CC(F)(F)F)C(=O)O; NMePhe(3-Me) = CN[C@@H](Cc1cccc(C)c1)C(=O)O; NMePhe(4-Me) = CN[C@@H](Cc1ccc(C)cc1)C(=O)O; NMePhe(4-I) = CN[C@@H](Cc1ccc(I)cc1)C(=O)O; NMeAla(cPent) = CN[C@@H](CC1CCCC1)C(=O)O; NMeGly(cPent) = CN[C@H](C(=O)O)C1CCCC1; dβ3hPip = O=C(C[C@H]1CCCCN1[*:1])[*:2]; NMeAla(cPr) = CN[C@@H](CC1CC1)C(=O)O; NMeY = CN[C@@H](Cc1ccc(O)cc1)C(=O)O; NMeCha = CN[C@@H](CC1CCCCC1)C(=O)O; NMeGly(cPr) = CN[C@H](C(=O)O)C1CC1; NMehLeu = CN[C@@H](CCC(C)C)C(=O)O; NMeAhp(2) = CCCCC[C@H](NC)C(=O)O; NMeChg = CN[C@H](C(=O)O)C1CCCCC1; NMeI = CC[C@H](C)[C@H](NC)C(=O)O; NMeE = CN[C@@H](CCC(=O)O)C(=O)O; NMeD = CN[C@@H](CC(=O)O)C(=O)O; NMeHpra = C#CCC[C@H](NC)C(=O)O; NMeL = CN[C@@H](CC(C)C)C(=O)O; NMeV = CN[C@H](C(=O)O)C(C)C; d(β3hA) = C[C@@H](N)CC(=O)O; NMeS = CN[C@@H](CO)C(=O)O; NMeA = CN[C@@H](C)C(=O)O; Piperidide = C1CCN(*)CC1; Pyrrolidide = C1CCN(*)C1; Ac5c = NC1(C(=O)O)CCCC1; Aze = O=C(O)[C@@H]1CCN1; Ac4c = NC1(C(=O)O)CCC1; CF3 = FC(F)(F)*; Sar = CNCC(=O)O; Propyl = CCC*

Experiments:
[1] = system: Human pancreatic cancer cell line AsPC-1; assay: Measurement of AsPC-1 cell growth inhibition (AsPC-1 CGI); format: cell-based; settings: 96 h
In short: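 AsPC-1 cells in 15% FBS RPMI-1640 were exposed to test compound for 96 hours at 37° C, with CellTiter-Glo as endpoint.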

[2] = molecular target: T1, Kras and SOS1 (biotin-tagged human Kras loaded with GDP, His-tagged human SOS1) (Homo sapiens, UniProt P01116, G12D); assay: Protein-protein interaction inhibition between Kras and SOS1 (KrasGl2D-SOS PPI) using AlphaScreen; format: binding; settings: AlphaScreen; biotin-tagged human Kras loaded with GDP, His-tagged human SOS1; read-out: KRAS G12D-SOS PPI IC50
T1 construct: made in house; host or cells: E. coli (stated for Kras only)
T1 sequence (P01116 1-188 isoform P01116-2 G12D): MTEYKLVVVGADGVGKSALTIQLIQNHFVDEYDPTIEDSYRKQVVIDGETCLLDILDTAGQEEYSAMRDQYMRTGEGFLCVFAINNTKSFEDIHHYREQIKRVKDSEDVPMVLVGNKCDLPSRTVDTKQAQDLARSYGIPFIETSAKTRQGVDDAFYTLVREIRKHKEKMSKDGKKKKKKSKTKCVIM
In short: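 Binding between SOS1 and Kras is detected as bead-proximity luminescence: illuminate Ni-conjugated donors (680 nm), collect 520-620 nm emission from streptavidin-conjugated acceptors; Kras carries biotin and GDP loaded after purification, SOS1 carries a His tag.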

SMILES	IC50 [1] [nM]	IC50 [2] [nM]
CC[C@H](C)[C@@H]1NC(=O)[C@H](CC2CCCC2)N(C)C(=O)C[C@@H](C)NC(=O)[C@H](C(C)C)N(C)C(=O)C2(CCCC2)NC(=O)[C@@H]2CCCN2C(=O)[C@H](CCc2ccc(C(F)(F)F)c(Cl)c2)NC(=O)CN(C)C(=O)[C@H](CC2CCCCC2)N(C)C(=O)CN(C)C(=O)CN(C)C1=O [Compound 901] (cyclo([Ac5c][NMeV][d(β3hA)][NMeAla(cPent)]I[Sar][Sar][NMeCha][Sar][hPhe(3-Cl-4-CF3)]P))	100 to 500	35
CCCOC[C@H]1C(=O)N(C)CC(=O)N[C@@H](CCc2ccc(C(F)(F)F)c(Cl)c2)C(=O)N2CCC[C@H]2C(=O)NC2(CCCC2)C(=O)N(C)[C@@H](C2CCCCC2)C(=O)N(C)[C@H](C(=O)N2CCCC2)CC(=O)N(C)[C@@H](CC(F)(F)F)C(=O)N[C@@H]([C@@H](C)CC)C(=O)N(C)CC(=O)N(C)CC(=O)N1C [Compound 735] ([NMeAbu(4,4,4-F3)]I[Sar][Sar][NMeS](Propyl)[Sar][hPhe(3-Cl-4-CF3)]P[Ac5c][NMeChg][NMeD]-Pyrrolidide; lactam N-11)	50 to 100	0.44
CC[C@H](C)[C@@H]1NC(=O)[C@H](C2CC2)N(C)C(=O)C[C@@H](C(=O)N2CCCCC2)N(C)C(=O)[C@H](C(C)C)N(C)C(=O)C2(CCCC2)NC(=O)[C@@H]2CCCN2C(=O)[C@H](CCc2ccc(C(F)(F)F)c(Cl)c2)NC(=O)CN(C)C(=O)[C@H](CC2CCCCC2)N(C)C(=O)CN(C)C(=O)CN(C)C1=O [Compound 980] ([NMeGly(cPr)]I[Sar][Sar][NMeCha][Sar][hPhe(3-Cl-4-CF3)]P[Ac5c][NMeV][NMeD]-Piperidide; lactam N-11)	100 to 500	3.8
CC[C@H](C)[C@@H]1NC(=O)[C@H](CC(C)C)N(C)C(=O)C[C@@H](C(=O)N(C)C)N(C)C(=O)[C@H]([C@@H](C)CC)N(C)C(=O)C2(CCCC2)NC(=O)[C@H](CCC(=O)NC)N(C)C(=O)[C@H](CCc2ccc(C(F)(F)F)c(Cl)c2)NC(=O)CN(C)C(=O)[C@H](Cc2ccc(C)cc2)N(C)C(=O)[C@@H]2CCN2C(=O)[C@H](C)N(C)C1=O [Compound 1911] ([NMeL]I[NMeA][Aze][NMePhe(4-Me)][Sar][hPhe(3-Cl-4-CF3)][NMeE](NHMe)[Ac5c][NMeI][NMeD]-NMe2; lactam N-11)	50 to 100	0.67
C#CCC[C@H]1C(=O)N[C@@H]([C@@H](C)CC)C(=O)N(C)CC(=O)N(C)CC(=O)N(C)[C@@H](Cc2ccc(I)cc2)C(=O)N(C)CC(=O)N[C@@H](CCc2ccc(C(F)(F)F)c(Cl)c2)C(=O)N2CCC[C@H]2C(=O)NC2(CCCC2)C(=O)N(C)[C@@H](C2CCCCC2)C(=O)N[C@H](C)CC(=O)N1C [Compound 300] (cyclo([Ac5c][NMeChg][d(β3hA)][NMeHpra]I[Sar][Sar][NMePhe(4-I)][Sar][hPhe(3-Cl-4-CF3)]P))	100 to 500	9.5
CC[C@H](C)[C@@H]1NC(=O)[C@H](CC(C)C)N(C)C(=O)C[C@@H](C)NC(=O)[C@H](C(C)C)N(C)C(=O)C2(CCCC2)NC(=O)[C@@H]2CCCN2C(=O)[C@H](CCc2ccc(C(F)(F)F)c(Cl)c2)NC(=O)CN(C)C(=O)[C@H](Cc2ccc(OC(F)(F)F)cc2)N(C)C(=O)CN(C)C(=O)CN(C)C1=O [Compound 1565] (cyclo([Ac5c][NMeV][d(β3hA)][NMeL]I[Sar][Sar][NMeY](CF3)[Sar][hPhe(3-Cl-4-CF3)]P))	100 to 500	14
CC[C@H](C)[C@@H]1NC(=O)[C@H](C)N(C)C(=O)C[C@@H](C(=O)N2CCCCC2)N(C)C(=O)[C@H](C2CCCCC2)N(C)C(=O)C2(CCCC2)NC(=O)[C@@H]2CCCN2C(=O)[C@H](CCc2cc(Cl)c(Cl)c(OC)c2)NC(=O)CN(C)C(=O)[C@H](CC2CCCCC2)N(C)C(=O)CN(C)C(=O)CN(C)C1=O [Compound 2081] ([NMeA]I[Sar][Sar][NMeCha][Sar][X15]P[Ac5c][NMeChg][NMeD]-Piperidide; lactam N-11)	> 500	2
CC[C@H](C)[C@@H]1NC(=O)[C@H](CC(C)C)N(C)C(=O)C[C@@H](C)NC(=O)[C@H](C(C)C)N(C)C(=O)C2(CCC2)NC(=O)[C@@H]2CCCN2C(=O)[C@H](CCc2ccc(C(F)(F)F)c(Cl)c2)NC(=O)CN(C)C(=O)[C@H](CC2CCCCC2)N(C)C(=O)CN(C)C(=O)CN(C)C1=O [Compound 520] (cyclo([Ac4c][NMeV][d(β3hA)][NMeL]I[Sar][Sar][NMeCha][Sar][hPhe(3-Cl-4-CF3)]P))	100 to 500	17
CC[C@H](C)[C@@H]1NC(=O)[C@H](CC2CCCCC2)N(C)C(=O)C[C@@H](C(=O)N2CCCCC2)N(C)C(=O)[C@H](C(C)C)N(C)C(=O)C2(CCCC2)NC(=O)[C@@H]2CCCN2C(=O)[C@H](CCc2ccc(C(F)(F)F)c(Cl)c2)NC(=O)CN(C)C(=O)[C@H](CC2CCCCC2)N(C)C(=O)CN(C)C(=O)CN(C)C1=O [Compound 321] ([NMeCha]I[Sar][Sar][NMeCha][Sar][hPhe(3-Cl-4-CF3)]P[Ac5c][NMeV][NMeD]-Piperidide; lactam N-11)	100 to 500	11
CC(C)C[C@H]1C(=O)N[C@@H](C(C)C)C(=O)N(C)CC(=O)N(C)CC(=O)N(C)[C@@H](CC2CCCCC2)C(=O)N(C)CC(=O)N[C@@H](CCc2ccc(C(F)(F)F)c(F)c2)C(=O)N2CCC[C@H]2C(=O)NC2(CCCC2)C(=O)N(C)[C@@H](CC(C)C)C(=O)N(C)[C@H](C(=O)N2CCCCC2)CC(=O)N1C [Compound 1458] ([NMeL]V[Sar][Sar][NMeCha][Sar][hPhe(3-F,4-CF3)]P[Ac5c][NMeL][NMeD]-Piperidide; lactam N-11)	100 to 500	7.2
CCCCC[C@H]1C(=O)N[C@@H]([C@@H](C)CC)C(=O)N(C)CC(=O)N(C)CC(=O)N(C)[C@@H](CC2CCCCC2)C(=O)N(C)CC(=O)N[C@@H](CCc2ccc(C(F)(F)F)c(Cl)c2)C(=O)N2CCC[C@H]2C(=O)NC2(CCCC2)C(=O)N(C)[C@@H](C2CCCCC2)C(=O)N(C)[C@H](C(=O)N2CCCCC2)CC(=O)N1C [Compound 1735] ([NMeAhp(2)]I[Sar][Sar][NMeCha][Sar][hPhe(3-Cl-4-CF3)]P[Ac5c][NMeChg][NMeD]-Piperidide; lactam N-11)	50 to 100	1.1
CC[C@H](C)[C@@H]1NC(=O)[C@H](CC(C)C)N(C)C(=O)C[C@H]2CCCCN2C(=O)[C@H](C(C)C)N(C)C(=O)C2(CCCC2)NC(=O)[C@@H]2CCCN2C(=O)[C@H](CCc2ccc(C(F)(F)F)c(Cl)c2)NC(=O)CN(C)C(=O)[C@H](CC2CCCCC2)N(C)C(=O)CN(C)C(=O)CN(C)C1=O [Compound 747] (cyclo([Ac5c][NMeV][dβ3hPip][NMeL]I[Sar][Sar][NMeCha][Sar][hPhe(3-Cl-4-CF3)]P))	100 to 500	11
CC[C@H](C)[C@@H]1NC(=O)[C@H](C)N(C)C(=O)C[C@@H](C(=O)N2CCCCC2)N(C)C(=O)[C@H](C2CCCCC2)N(C)C(=O)C2(CCCC2)NC(=O)[C@@H]2CCCN2C(=O)[C@H](CCc2cc(Cl)c(Cl)c(OC(C)(C)C)c2)NC(=O)CN(C)C(=O)[C@H](CC2CCCCC2)N(C)C(=O)CN(C)C(=O)CN(C)C1=O [Compound 2082] ([NMeA]I[Sar][Sar][NMeCha][Sar][X19]P[Ac5c][NMeChg][NMeD]-Piperidide; lactam N-11)	> 500	41
CC[C@H](C)[C@@H]1NC(=O)[C@H](CC(C)C)N(C)C(=O)C[C@@H](C(=O)N(C)C)N(C)C(=O)[C@H](C2CCCC2)N(C)C(=O)C2(CCCC2)NC(=O)[C@H](Cc2cccc(C)c2)N(C)C(=O)[C@H](CCc2ccc(C(F)(F)F)c(Cl)c2)NC(=O)CN(C)C(=O)[C@H](CC2CCCCC2)N(C)C(=O)[C@@H]2CCN2C(=O)[C@H](C)N(C)C1=O [Compound 449] ([NMeL]I[NMeA][Aze][NMeCha][Sar][hPhe(3-Cl-4-CF3)][NMePhe(3-Me)][Ac5c][NMeGly(cPent)][NMeD]-NMe2; lactam N-11)	100 to 500	30
CC[C@H](C)[C@@H]1NC(=O)[C@H](CC2CC2)N(C)C(=O)C[C@@H](C(=O)N2CCCCC2)N(C)C(=O)[C@H](C2CCCCC2)N(C)C(=O)C2(CCCC2)NC(=O)[C@@H]2CCCN2C(=O)[C@H](CCc2ccc(C(F)(F)F)c(Cl)c2)NC(=O)CN(C)C(=O)[C@H](CC2CCCCC2)N(C)C(=O)CN(C)C(=O)CN(C)C1=O [Compound 68] ([NMeAla(cPr)]I[Sar][Sar][NMeCha][Sar][hPhe(3-Cl-4-CF3)]P[Ac5c][NMeChg][NMeD]-Piperidide; lactam N-11)	50 to 100	0.58
CC[C@H](C)[C@@H]1NC(=O)[C@H](CC(C)C)N(C)C(=O)C[C@@H](C(=O)N2CCCCC2)N(C)C(=O)[C@H](C2CCCCC2)N(C)C(=O)C2(CCCC2)NC(=O)[C@@H]2CCCN2C(=O)[C@H](CCc2ccc(C(F)(F)F)c(Cl)c2)NC(=O)CN(C)C(=O)[C@H](CCC(C)C)N(C)C(=O)CN(C)C(=O)CN(C)C1=O [Compound 1830] ([NMeL]I[Sar][Sar][NMehLeu][Sar][hPhe(3-Cl-4-CF3)]P[Ac5c][NMeChg][NMeD]-Piperidide; lactam N-11)	100 to 500	1.6
CC[C@H](C)[C@@H]1NC(=O)[C@H](CC(C)C)N(C)C(=O)C[C@@H](C(=O)N2CCCCC2)N(C)C(=O)[C@H](C(C)C)N(C)C(=O)C2(CCCC2)NC(=O)[C@@H]2CCCN2C(=O)[C@H](CCc2ccc(C(F)(F)F)c(Cl)c2)NC(=O)CN(C)C(=O)[C@H](Cc2ccc(C(F)(F)F)cc2)N(C)C(=O)CN(C)C(=O)CN(C)C1=O [Compound 1629] ([NMeL]I[Sar][Sar][NMePhe(4-CF3)][Sar][hPhe(3-Cl-4-CF3)]P[Ac5c][NMeV][NMeD]-Piperidide; lactam N-11)	50 to 100	2.5
